Test results from ChEMBL document CHEMBL4020755, “Design, synthesis, and biological evaluation of deuterated apalutamide with improved pharmacokinetic profiles” (Bioorg Med Chem Lett, 2017).

Legend:
Format in all cases: ADME, organism-based
Conditions in all cases: in vivo, po
[1] = Tmax in Balb/c mouse at 10 mg/kg administered orally measured up to 24 hrs by LC-MS/MS analysis
[2] = Cmax in Balb/c mouse at 10 mg/kg administered orally measured up to 24 hrs by LC-MS/MS analysis; design: dose 10 mg/kg, route oral
[3] = AUC (0 to 24 hrs) in Balb/c mouse at 10 mg/kg administered orally measured up to 24 hrs by LC-MS/MS analysis; design: dose 10 mg/kg, time < 24 hr, route oral
[4] = Half life in Balb/c mouse at 10 mg/kg administered orally measured up to 24 hrs by LC-MS/MS analysis
[5] = Cmax in Sprague-Dawley rat at 10 mg/kg administered orally measured up to 24 hrs by LC-MS/MS analysis; design: dose 10 mg/kg, route oral
[6] = AUC (0 to infinity) in Sprague-Dawley rat at 10 mg/kg administered orally measured up to 24 hrs by LC-MS/MS analysis; design: dose 10 mg/kg, route oral, time infinity
[7] = Mean residence time in Sprague-Dawley rat 10 mg/kg administered orally measured up to 24 hrs by LC-MS/MS analysis
[8] = Half life in Sprague-Dawley rat 10 mg/kg administered orally measured up to 24 hrs by LC-MS/MS analysis

SMILES	Tmax [1] [h]	Cmax [2] [ng/mL]	AUC(0-t) at 24 h [3] [ng·h/mL]	half-life [4] [min]	Cmax [5] [ng/mL]	AUC(0-inf) [6] [ng·h/mL]	MRT [7] [h]	half-life [8] [min]
[2H]c1cc(C(=O)NC([2H])([2H])[2H])c(F)c([2H])c1N1C(=S)N(c2cnc(C#N)c(C(F)(F)F)c2)C(=O)C12CCC2	4	3940	80600	3290				
[2H]C1([2H])CC([2H])([2H])C12C(=O)N(c1cnc(C#N)c(C(F)(F)F)c1)C(=S)N2c1ccc(C(=O)NC)c(F)c1	6	2170	41100	1940				
[2H]C([2H])([2H])NC(=O)c1ccc(N2C(=S)N(c3cnc(C#N)c(C(F)(F)F)c3)C(=O)C23CCC3)cc1F	4	4480	87800	1940	1700	28700	13	534
[2H]c1cc(C(=O)NC)c(F)c([2H])c1N1C(=S)N(c2cnc(C#N)c(C(F)(F)F)c2)C(=O)C12CCC2	6	3480	63800	396				
CNC(=O)c1ccc(N2C(=S)N(c3cnc(C#N)c(C(F)(F)F)c3)C(=O)C23CCC3)cc1F [APALUTAMIDE]	6	3320	61600	354	946	14800	10.7	444
